Key:
[1] = molecular target: human mu opioid receptor (Homo sapiens, UniProt P35372); assay: Radioligand competition binding at the human mu opioid receptor; settings: for nH (Hill coefficient): human mu opioid receptor, competition curves
Experimental: Compounds of the invention were assayed for activity at the human mu opioid receptor by methods substantially similar to those described in Zhang, et al., (1998) “Dynorphin A as a potential endogenous ligand for four members of the opioid receptor gene family.” J. Pharmacol. Exp. Ther., 286: 136-141.
IC50 values (concentration causing a half-maximal inhibition of control specific binding) and Hill coefficients (nH) were determined by non-linear regression analysis of the competition curves using Hill equation curve fitting.
Inhibition constants (Ki) were calculated from the Cheng Prusoff equation: (Ki=IC50/(1+(L/KD)), where L=concentration of radioligand in the assay, and KD=affinity of the radioligand for the receptor).
Results are expressed as a percent of control specific binding obtained in the presence of compounds 6-alpha-methylnaltrexol, 6-beta-methylnaltrexol and 3-sulfo-methylnaltrexone.

[2] = molecular target: μ-opioid receptors in the guinea pig ileum (Cavia porcellus, UniProt A0ACM8Q262); assay: Functional activity: inhibition of DAMGO-induced decrease of twitch contraction amplitude in guinea pig ileum; type: cell-based; settings: read-out: IC50 Value (concentration causing a half-maximal inhibition of DAMGO-induced decrease of twitch contraction amplitude)
Chain of μ-opioid receptors in the guinea pig ileum (A0ACM8Q262 1-400): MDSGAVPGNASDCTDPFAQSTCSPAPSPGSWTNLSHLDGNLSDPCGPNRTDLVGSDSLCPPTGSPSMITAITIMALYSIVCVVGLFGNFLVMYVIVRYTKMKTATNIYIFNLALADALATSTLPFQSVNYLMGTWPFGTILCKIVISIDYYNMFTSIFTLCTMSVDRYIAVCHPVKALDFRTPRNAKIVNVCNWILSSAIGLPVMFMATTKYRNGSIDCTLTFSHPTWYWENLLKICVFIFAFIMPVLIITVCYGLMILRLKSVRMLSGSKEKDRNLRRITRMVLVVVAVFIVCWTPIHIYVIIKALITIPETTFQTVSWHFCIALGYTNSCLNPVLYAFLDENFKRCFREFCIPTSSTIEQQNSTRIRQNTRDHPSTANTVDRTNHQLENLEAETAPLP
Experimental: The IC50 values (concentration causing a half-maximal inhibition of DAMGO-induced decrease of twitch contraction amplitude) were determined by non-linear regression analysis of the dose-response curves.
Results are expressed as a concentration causing a half-maximal inhibition of DAMGO-induced decrease of twitch contraction amplitude of guinea-pig ileum in the presence of compounds 6-alpha-methylnaltrexol, 6-beta-methylnaltrexol and 3-sulfo-methylnaltrexone.

Chain of human mu opioid receptor (P35372 whole entry): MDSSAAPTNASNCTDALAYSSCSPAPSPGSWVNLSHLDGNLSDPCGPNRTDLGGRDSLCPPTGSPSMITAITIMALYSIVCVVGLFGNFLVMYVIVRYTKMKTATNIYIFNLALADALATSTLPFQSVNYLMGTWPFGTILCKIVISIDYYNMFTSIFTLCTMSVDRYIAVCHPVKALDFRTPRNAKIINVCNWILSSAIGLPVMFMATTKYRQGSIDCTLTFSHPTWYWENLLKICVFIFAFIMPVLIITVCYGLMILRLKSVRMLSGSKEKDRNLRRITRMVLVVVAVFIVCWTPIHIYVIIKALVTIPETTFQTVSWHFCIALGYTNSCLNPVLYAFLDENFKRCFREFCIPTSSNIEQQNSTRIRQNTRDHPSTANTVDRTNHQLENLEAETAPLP

Row | Compound | IC50 [1] [µM] | Ki [1] [µM] | nH (Hill coefficient) [1] | IC50 [2] [µM]
1 | C[N+]1(CC2CC2)CC[C@]23c4c5ccc(O)c4O[C@H]2[C@H](O)CC[C@@]3(O)[C@H]1C5 (stereo partly drawn) [Compound I-2, (5α,6β)-17-cyclopropylmethyl-17-methyl-4,5-epoxy-3,6,14-trihydroxy-morphinan bromide] | 0.23 | 0.06 | 0.9 | 0.14
2 | C[N+]1(CC2CC2)CC[C@]23c4c5ccc(OS(=O)(=O)O)c4O[C@H]2C(=O)CC[C@@]3(O)[C@H]1C5 (stereo partly drawn) [Compound I-3, 3 sulfo-methylnaltrexone] | 8.3 | 2.2 | 0.8 | 10
3 | C[N+]1(CC2CC2)CC[C@]23c4c5ccc(O)c4O[C@H]2[C@@H](O)CC[C@@]3(O)[C@H]1C5 (stereo partly drawn) [Compound I-1, (5α,6α)-17-cyclopropylmethyl-17-methyl-4,5-epoxy-3,6,14-trihydroxy-morphinan bromide] | 0.11 | 0.03 | 0.8 | 0.17

Source: patent publication US8853232B2, “Peripheral opioid receptor antagonists and uses thereof” (Progenics Pharmaceuticals, Inc., priority 2007, dated 2014)
